Source: the supplement of paper PMC5908809

What was measured:
[1] = system: normal NK cells expanded with K562-aAPC; experiment: drug sensitivity score (DSS) (DSS units); higher = more sensitive; extreme values may be limits of the assay; conditions: 72 h; IL-2 2.5 ng/mL
Experimental: (§1)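 Drug sensitivity and resistance testing on K562-aAPC-expanded normal NK cells: 5 concentrations (10-fold steps over a 10,000-fold range), 72 h at 37 °C, viability by CellTiter-Glo normalised to DMSO and benzethonium chloride controls; DSS from the fitted curve.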

NK-92 (IL-2 2.5 ng/mL) [2] = experiment: as above; conditions: 72 h
NK-YS (IL-2 2.5 ng/mL) [3] = experiment: as above; conditions: 72 h
[4] = system: normal primary NK cells, pool 3 (3 donors) (IL-2 2.5 ng/mL); experiment: as above; conditions: 72 h
[5] = system: normal primary NK cells, pool 1 (3 donors), resting (IL-2 0 ng/mL); experiment: as above; conditions: 72 h
KHYG-1 (IL-2 2.5 ng/mL) [6] = experiment: as above; conditions: 72 h
[7] = system: normal primary NK cells, pool 1 (3 donors) (IL-2 2.5 ng/mL); experiment: as above; conditions: 72 h
[8] = system: normal primary NK cells, pool 2 (3 donors) (IL-2 2.5 ng/mL); experiment: as above; conditions: 72 h
SNK-6 (IL-2 2.5 ng/mL) [9] = experiment: as above; conditions: 72 h
KAI3 (IL-2 2.5 ng/mL) [10] = experiment: as above; conditions: 72 h
NKL (IL-2 2.5 ng/mL) [11] = experiment: as above; conditions: 72 h
IMC-1 (IL-2 20 ng/mL) [12] = experiment: as above; conditions: 72 h
YT (IL-2 2.5 ng/mL) [13] = experiment: as above; conditions: 72 h
DERL-7 (IL-2 2.5 ng/mL) [14] = experiment: as above; conditions: 72 h
NK-92 (IL-2 2.5 ng/mL) [15] = experiment: percent inhibition of viability; higher = more inhibition; conditions: 72 h
NK-YS (IL-2 2.5 ng/mL) [16] = experiment: as above; conditions: 72 h
[17] = system: normal primary NK cells, pool 3 (3 donors) (IL-2 2.5 ng/mL); experiment: as above; conditions: 72 h
[18] = system: normal primary NK cells, pool 1 (3 donors), resting (IL-2 0 ng/mL); experiment: as above; conditions: 72 h
KHYG-1 (IL-2 2.5 ng/mL) [19] = experiment: as above; conditions: 72 h
[20] = system: normal primary NK cells, pool 1 (3 donors) (IL-2 2.5 ng/mL); experiment: as above; conditions: 72 h
[21] = system: normal primary NK cells, pool 2 (3 donors) (IL-2 2.5 ng/mL); experiment: as above; conditions: 72 h
SNK-6 (IL-2 2.5 ng/mL) [22] = experiment: as above; conditions: 72 h
KAI3 (IL-2 2.5 ng/mL) [23] = experiment: as above; conditions: 72 h
NKL (IL-2 2.5 ng/mL) [24] = experiment: as above; conditions: 72 h
IMC-1 (IL-2 20 ng/mL) [25] = experiment: as above; conditions: 72 h
YT (IL-2 2.5 ng/mL) [26] = experiment: as above; conditions: 72 h
DERL-7 (IL-2 2.5 ng/mL) [27] = experiment: as above; conditions: 72 h
[28] = system: normal NK cells expanded with K562-aAPC; experiment: as above; conditions: 72 h, IL-2 2.5 ng/mL
Experimental: as §1

Cn1c(CCCC(=O)O)nc2cc(N(CCCl)CCCl)ccc21 [Bendamustine] (max concentration tested 10000 nM)
Conditions | drug sensitivity score
DERL-7 (IL-2 2.5 ng/mL) [14] | 0
IMC-1 (IL-2 20 ng/mL) [12] | 1.24
KAI3 (IL-2 2.5 ng/mL) [10] | 1.09
KHYG-1 (IL-2 2.5 ng/mL) [6] | 0.29
NK-92 (IL-2 2.5 ng/mL) [2] | 0.59
NK-YS (IL-2 2.5 ng/mL) [3] | 4.15
NKL (IL-2 2.5 ng/mL) [11] | 8.66
SNK-6 (IL-2 2.5 ng/mL) [9] | 5.85
YT (IL-2 2.5 ng/mL) [13] | 0
[1] | 4.02
[4] | 3.81
[5] | 4.14
[7] | 2.59
[8] | 3.11

percent inhibition of viability [%]
Conditions | 1 nM | 10 nM | 100 nM | 1000 nM | 10000 nM
DERL-7 (IL-2 2.5 ng/mL) [27] | 2.35 | -0.75 | -0.87 | -0.14 | 8.22
IMC-1 (IL-2 20 ng/mL) [25] | -5.16 | -3.14 | 0.53 | 1.92 | 25.3
KAI3 (IL-2 2.5 ng/mL) [23] | -0.41 | 1.91 | 1.35 | -4.7 | 30.8
KHYG-1 (IL-2 2.5 ng/mL) [19] | -5.91 | 1.42 | 10.1 | 2.21 | 17.1
NK-92 (IL-2 2.5 ng/mL) [15] | -10.3 | -2.08 | 7.9 | -10.7 | 24.9
NK-YS (IL-2 2.5 ng/mL) [16] | -10.9 | -2.18 | 8.61 | 4.45 | 63.6
NKL (IL-2 2.5 ng/mL) [24] | -5.33 | -10.8 | 5.76 | 27.8 | 88.6
SNK-6 (IL-2 2.5 ng/mL) [22] | -1.78 | -2.24 | 14.2 | 17.1 | 67
YT (IL-2 2.5 ng/mL) [26] | -6.57 | -3.19 | 7.12 | -0.08 | 0
[17] | -2.58 | 1.8 | 5.19 | 5.5 | 54.3
[18] | -1.75 | 6.06 | -6.12 | -12.6 | 88.2
[20] | -9.6 | -0.97 | -3.62 | -12.8 | 60.6
[21] | -6.1 | -4.8 | 1.7 | 1.54 | 54.5
[28] | 3.13 | 1.48 | -1.08 | 12.2 | 42.8

C=C(c1ccc(C(=O)O)cc1)c1cc2c(cc1C)C(C)(C)CCC2(C)C [Bexarotene] (max concentration tested 10000 nM)
Conditions | drug sensitivity score
DERL-7 (IL-2 2.5 ng/mL) [14] | 0
IMC-1 (IL-2 20 ng/mL) [12] | 0.08
KAI3 (IL-2 2.5 ng/mL) [10] | 2.32
KHYG-1 (IL-2 2.5 ng/mL) [6] | 11.4
NK-92 (IL-2 2.5 ng/mL) [2] | 9.12
NK-YS (IL-2 2.5 ng/mL) [3] | 6.37
NKL (IL-2 2.5 ng/mL) [11] | 15.3
SNK-6 (IL-2 2.5 ng/mL) [9] | 1.61
YT (IL-2 2.5 ng/mL) [13] | 4.39
[1] | 0
[4] | 0
[5] | 0.5
[7] | 0
[8] | 0

percent inhibition of viability [%]
Conditions | 1 nM | 10 nM | 100 nM | 1000 nM | 10000 nM
DERL-7 (IL-2 2.5 ng/mL) [27] | -1.72 | -14.1 | -7.53 | 1.51 | 6.9
IMC-1 (IL-2 20 ng/mL) [25] | -7.44 | -4.67 | -6.9 | -7.39 | 14.5
KAI3 (IL-2 2.5 ng/mL) [23] | -2.82 | 4.02 | 5.5 | 12.6 | 29.6
KHYG-1 (IL-2 2.5 ng/mL) [19] | 0.07 | -1.61 | 31.4 | 35.3 | 42.5
NK-92 (IL-2 2.5 ng/mL) [15] | -0.26 | -14.3 | 18 | 38.2 | 32.8
NK-YS (IL-2 2.5 ng/mL) [16] | -0.63 | -6.05 | 10.2 | 30.5 | 40.5
NKL (IL-2 2.5 ng/mL) [24] | -2.63 | -4.9 | 33.7 | 59.2 | 80.4
SNK-6 (IL-2 2.5 ng/mL) [22] | -4.84 | -4.27 | 10 | 4.19 | 25.4
YT (IL-2 2.5 ng/mL) [26] | 1.74 | -2.56 | 5.09 | 22.2 | 38.4
[17] | -2.37 | -1.77 | 4 | -8.07 | -0.96
[18] | 6.01 | -4.44 | -0.24 | 2.22 | 15.6
[20] | 2.65 | 3.77 | 5.07 | -0.78 | 2.54
[21] | -3.26 | -9.74 | -11.1 | -7.66 | 2.35
[28] | -0.13 | -7.46 | -13.6 | -8.25 | -6.11

Cc1c(N)nc([C@H](CC(N)=O)NC[C@H](N)C(N)=O)nc1C(=O)N[C@H](C(=O)N[C@H](C)[C@@H](O)[C@H](C)C(=O)N[C@H](C(=O)NCCc1nc(-c2nc(C(=O)NCCC[S+](C)C)cs2)cs1)[C@@H](C)O)[C@@H](OC1OC(CO)C(O)C(O)C1OC1OC(CO)C(O)C(OC(N)=O)C1O)c1cnc[nH]1 (some centres not stated) [Bleomycin] (max concentration tested 10000 nM)
Conditions | drug sensitivity score
DERL-7 (IL-2 2.5 ng/mL) [14] | 8.38
IMC-1 (IL-2 20 ng/mL) [12] | 5.31
KAI3 (IL-2 2.5 ng/mL) [10] | 11.2
KHYG-1 (IL-2 2.5 ng/mL) [6] | 4.93
NK-92 (IL-2 2.5 ng/mL) [2] | 13.2
NK-YS (IL-2 2.5 ng/mL) [3] | 11.1
NKL (IL-2 2.5 ng/mL) [11] | 10.6
SNK-6 (IL-2 2.5 ng/mL) [9] | 27.6
YT (IL-2 2.5 ng/mL) [13] | 4.81
[1] | 7.53
[4] | 6.94
[5] | 4.07
[7] | 3.94
[8] | 7.05

percent inhibition of viability [%]
Conditions | 1 nM | 10 nM | 100 nM | 1000 nM | 10000 nM
DERL-7 (IL-2 2.5 ng/mL) [27] | 0.04 | -2.28 | 1.21 | 29.5 | 78.2
IMC-1 (IL-2 20 ng/mL) [25] | -0.57 | -6.19 | 5.49 | 17.2 | 56.8
KAI3 (IL-2 2.5 ng/mL) [23] | -4.06 | -8.69 | 8.99 | 52.9 | 77
KHYG-1 (IL-2 2.5 ng/mL) [19] | -3.86 | -5.7 | -1.32 | 7.38 | 67.6
NK-92 (IL-2 2.5 ng/mL) [15] | -18 | -20.7 | 13.2 | 60.3 | 99
NK-YS (IL-2 2.5 ng/mL) [16] | -1.93 | -5.64 | 6.84 | 52.8 | 81.4
NKL (IL-2 2.5 ng/mL) [24] | -14.6 | -9.35 | -1.37 | 39.7 | 96.6
SNK-6 (IL-2 2.5 ng/mL) [22] | 9.29 | 19.8 | 68.8 | 97 | 101
YT (IL-2 2.5 ng/mL) [26] | -2.74 | -1.16 | 1.84 | 13.3 | 51.6
[17] | -10.1 | -1.71 | 12.2 | 27.9 | 68.2
[18] | -6.18 | -0.23 | -9.89 | -6.49 | 82
[20] | -8.98 | 2.35 | -2.19 | 6.69 | 52.9
[21] | -11.5 | -5.49 | -1.39 | 19.4 | 73.8
[28] | 3.15 | -1.5 | 7.63 | 34.1 | 62.5
